Tests used:
[1] = target: HIV long terminal repeat (LTR) promoter; assay: in vitro; assay type: cell-based; settings: Jurkat cells
Experimental: (§1) The compounds were also tested in the T cell derived Jurkat cell line transfected with a luciferase reporter under control of an HIV long terminal repeat (LTR) promoter. Specifically, EC50 and CC50 values were determined in parallel using 10 concentrations of compound from 3 fold serial dilutions starting a 5 uM as the highest concentration. Cells and media were added to compounds with a final concentration of DMSO of 1% and incubated at 37° C., 5% CO2 for 24, 48 and 72 hours. EC50 was measured by induced luciferase activity detected by the use of the Steady-Glo® Luciferase reagent (PROMEGA) with an EnVision (Perkin-Elmer) plate reader. CC50 was determined by the dose dependent knock down of cellular ATP detected by the use of CellTiter-Glo® Luminescent Cell Viability reagent (PROMEGA) with an EnVision (Perkin-Elmer) plate reader.

Jurkat cell line = assay: in vitro; assay type: cell-based; settings: Jurkat cells, knock down of cellular ATP
Experimental: as §1

CCCCCCCCCCCCCC(=O)O[C@@H]1[C@@H](C)[C@@]2(O)[C@@H](C=C(CO)C[C@]3(O)C(=O)C(C)=C[C@@H]23)[C@@H]2C(C)(C)[C@]12OC(C)=O [PMA, phorbol 12-myristate 13-acetate]
EC50 ([1]; LTR-luciferase, incubated 24, 48 and 72 hours (time of the listed values not stated)): 0.1 nM | Selectivity (CC50:EC50) ([1]; ratio of the CC50 to the EC50): 1 | CC50 (Jurkat cell line): 0.1 nM
